This is an account of results in US6525214B1, “Therapeutic agent” (priority 1991, dated 2003).

The conditions of data set [1]: in humans; cited from earlier work.
Data set [2] is described as follows: Appearance of formulation made with the drug form. The data set is classed as physicochemical. As for the experimental part: The polyethylene glycol was mixed with about 25% of the required purified water and the Carbopol® dispersed in this mixture. About 56% of the required purified water was added with rapid stirring until the CARBOPOL® was well dispersed and appeared hydrated. The sodium hydroxide was dissolved in a minimum of purified water and added to the bulk with stirring. The S(+)-ibuprofen sodium salt dihydrate was dissolved in a mixture of phenoxyethanol, propylene glycol and remaining purified water and added to the Carbopol® gel with rapid stirring.
The LYCASIN® and glycerin were mixed together. The domiphen bromide was dissolved in the alcohol. The sodium salt was added to this alcoholic solution along with sufficient purified water to produce a solution. The aqueous alcoholic solution was added to the LYCASIN®/glycerin mixture and mixed well. Optional flavourings may be added to the above formulation.
The LYCASIN® and glycerin were mixed together and diluted with a suitable volume of water. The sodium salt was dispersed and dissolved in the mixture. The domiphen bromide was dissolved in the alcohol and this solution added slowly with stirring to the bulk. The formulation was made up to volume and mixed well. Optional flavourings may be added to the formulation.
The powders were sieved through a 30 mesh sieve and blended together, then filled into sachets containing 2000 mg of powder. Optional flavourings may be added to the above mixture.

Setting [3] is: topical gel formulation of Example 20 (Carbopol gel base).
[4] abbreviates: higher strength oral liquid formulation of Example 25.
[5] abbreviates: low strength oral liquid formulation of Example 23.

Turning to `CC(C)Cc1ccc([C@@H](C)C(=O)O)cc1` [R(−)-ibuprofen, R(−)-2-(4-isobutylphenyl)propionic acid], the “Conversion into S(+)-ibuprofen” value in data set [1] is given as “partially converted into S(+)-ibuprofen”.
Consider `CC(C)Cc1ccc(C(C)C(=O)[O-])cc1.[Na+]` (racemic) [sodium salt of ibuprofen racemate, sodium 2-(4-isobutylphenyl)propionate], for which, in data set [2] (setting [3]), the Appearance of product entry is “a totally unsatisfactory product that separated into a clear upper liquid and a cloudy viscous lower layer”.
Consider `CC(C)Cc1ccc([C@H](C)C(=O)[O-])cc1.O.O.[Na+]` [S(−)sodium 2-(4-isobutylphenyl)propionate dihydrate], for which the Appearance of product entry in data set [2] (setting [4]) is reported as “a clear bright liquid”; in data set [2] (setting [5]) it was “a bright clear product”.
For `CC(C)Cc1ccc([C@H](C)C(=O)O)cc1` [S(+)-ibuprofen free acid, S(+)-2-(4-isobutylphenyl)propionic acid], the “Appearance on addition to hot water” value in data set [2] (cold relief powder formulation base of Example 27, hot water 70° C. or greater) is given as “an unpalatable oily layer on the surface of the hot water”. Besides, the figures for the Appearance of product entry in data set [2] (setting [4]), in data set [2] (setting [5]) and in data set [2] (setting [3]) were “an unsuitable product with the drug floating on the surface”, “a poor product with a significant proportion of the S(+)-ibuprofen floating on the surface of the product” and “an opaque product of a high viscosity not suitable for use as a topical rub”, respectively.
